Columns and labels:
[1] = test system: A549 (Lung); assay: Cytotoxicity by MTT assay, A549; type: cell-based; settings: Homo sapiens, 72 h, three days continuous exposure
[2] = test system: CLL cells; assay: Viability of CLL cells taken from patients before and after oral etodolac; type: in vivo, human; settings: for in vitro survival of CLL cells after treatment compared to before treatment: 400 mg tablet, second tablet 12 hours later
Protocol: The circles show CLL cells before etodolac treatment. In FIGS. 6-7, the upward pointing triangles represent CLL cell viability after etodolac treatment, wherein the cells are dispersed in medium containing the pretreatment plasma. The downward pointing triangles are CLL cells after treatment maintained in medium with the post-treatment plasma. […] Cells were analyzed within 30 minutes in a Becton Dickinson FAC-Scalibur cytofluorometer. After suitable comprehension, fluorescence was recorded at different wavelength: DiOC6 and DHR at 525 nm (Fl-1) and PI at 600 nm (FL-3).

[3] = test system: CLL cells; assay: Viability of CLL cells, erythrocin B exclusion assay
[4] = in vivo; cited from earlier work
[5] = test system: HCT-116 (Colon); assay: Cytotoxicity by MTT assay, HCT-116; type: cell-based; settings: Homo sapiens, 72 h, three days continuous exposure
[6] = test system: Bag-1; assay: Bag-1 level in LNCaP cells, SDS-PAGE immunoblot; type: cell-based; settings: 100 μM, as early as two hours, FIG. 11B
[7] = test system: prostate cancer tissue; assay: Prostatectomy tissue samples incubated 72 hours, histology; type: cell-based
Text: The tissues were next fixed in 4% paraformaldehyde in PBS, embedded in paraffin, sectioned and stained with hematoxylin and eosin.

[8] = test system: MDA-MB-231 (Breast); assay: Cytotoxicity by MTT assay, MDA-MB-231; type: cell-based; settings: Homo sapiens, 72 h, three days continuous exposure
[9] = test system: normal peripheral blood lymphocytes (PBL); assay: Viability of normal peripheral blood lymphocytes, erythrocin B exclusion assay; type: cell-based, human; settings: FIG. 1
[10] = test system: normal B cells; assay: Viability of normal B lymphocytes (anti-CD19 staining, DiOC6 fluorescence); type: cell-based, human; settings: 1.0 mM, 24 hours
Protocol: Then B lymphocytes were identified by staining with anti-CD19 antibody, and viability was assessed by DiOC6 fluorescence.

[11] = test system: PC-3 (Prostate); assay: Cytotoxicity by MTT assay, PC-3; type: cell-based; settings: 72 h, three days continuous exposure
[12] = test system: LNCaP-FGC (Prostate); assay: Cytotoxicity by MTT assay, LNCaP-FGC; type: cell-based; settings: 72 h, three days continuous exposure
[13] = test system: Mcl-1; assay: Mcl-1 level in LNCaP cells, SDS-PAGE immunoblot; type: cell-based; settings: 100 μM, as early as two hours, LNCaP; FIG. 11A
[14] = test system: SW260 (Colon); assay: Cytotoxicity by MTT assay, SW260; type: cell-based; settings: 72 h, three days continuous exposure
[15] = test system: OVCAR-3 (Ovarian); assay: Cytotoxicity by MTT assay, OVCAR-3; type: cell-based; settings: Homo sapiens, 72 h, three days continuous exposure
[16] = test system: Bcl-2 and Bax; assay: Bcl-2 and Bax levels after etodolac incubation; type: cell-based; settings: data not shown
[17] = test system: Alva-31 (Prostate); assay: Cytotoxicity by MTT assay, Alva-31; type: cell-based; settings: 72 h, three days continuous exposure

**Q.** Which IC50 [1] does the source give for `CCc1cccc2c3c([nH]c12)C(CC)(CC(=O)O)OCC3` (racemic) [etodolac, 1,8-Diethyl-1,3,4,9-tetrahydropyrano[3,4-b]indole-1-acetic acid] here?
**A.** The IC50 was over 1000 µM.

**Q.** What about the “in vitro survival of CLL cells after treatment compared to before treatment” value ([2]; patient one, FIG. 7) of the same molecule?
**A.** The value was “less dramatic but similar effect”.

**Q.** And the “in vitro survival of CLL cells after treatment compared to before treatment” value ([2]; patient two, FIG. 6)?
**A.** Its value is “shortened survival”.

**Q.** What about the “cell death by apoptosis (DiOC6 staining, dots in left lower box) after versus before treatment” value ([2]; patient two, detectable at 12 hours, increases after 24 hours, FIG. 8) of the same molecule?
**A.** Its value is “much higher”.

**Q.** And the CLL cells killed ([3]; 200 μM, 48 hour exposure, FIG. 2)?
**A.** The CLL cells killed was 50%.

**Q.** What about the “cytotoxic effect on CLL cells, either drug alone” value ([3]; fludarabine 10 nM or etodolac 10 μM alone, 48 hours, FIG. 3) of the same molecule?
**A.** Its value is “ineffective”.

**Q.** What about the elimination half-life [4] of the same molecule?
**A.** Its elimination half-life is 6 to 8 h.

**Q.** What about the IC50 [5] of the same molecule?
**A.** The IC50 was 450 ± 15 µM.

**Q.** And the Bag-1 levels [6]?
**A.** The Bag-1 levels was “fell”.

**Q.** And the “activity in prostatectomy samples” value [7]?
**A.** The value was “active”.

**Q.** What about the “effect on normal basal cells in prostatectomy samples” value [7] of the same molecule?
**A.** The value was “did not affect normal basal cells”.

**Q.** And the “toxicity to tumor cells in prostatectomy samples” value ([7]; FIG. 15)?
**A.** Its value is “selectively toxic to the tumor cells”.

**Q.** And the IC50 [8]?
**A.** The IC50 was over 1000 µM.

**Q.** What about the “concentration at which significant death of normal PBLs occurred” value [9] of the same molecule?
**A.** Its value is 800 µM.

**Q.** What about the “viability of normal B cells compared to control cultures” value [10] of the same molecule?
**A.** The value was “did not reduce the viability”.

**Q.** What about the IC50 [11] of the same molecule?
**A.** The IC50 was 340 ± 20 µM.

**Q.** What about the IC50 [12] of the same molecule?
**A.** The IC50 was 400 ± 35 µM.

**Q.** What about the Mcl-1 levels [13] of the same molecule?
**A.** The Mcl-1 levels was “fell”.

**Q.** And the IC50 [14]?
**A.** The IC50 was 1000 ± 120 µM.

**Q.** And the IC50 [15]?
**A.** The IC50 was over 1000 µM.

**Q.** And the “Bcl-2 and Bax levels” value [16]?
**A.** Its value is “did not alter”.

**Q.** What about the IC50 [17] of the same molecule?
**A.** The IC50 was over 1000 µM.
